Measured values from patent US7964751B2, “Enantiomers of amino-phenyl-acetic acid octadec-9-(Z) enyl ester, their salts and their uses” (Yeda Research and Development Co. Ltd., priority 2007, dated 2011).
Where a name gives a salt, the structure may show the parent alone.

Experiments:
[1] = test system: Delayed type hypersensitivity (DTH) skin inflammation in Balb/c mice; test: Delayed type hypersensitivity (DTH), oxazolone-induced mouse ear swelling test; format: in vivo; details: for % Inflamation (Diff/Base line * 100) / % Inhibition / Difference mm: 24 hours; for inhibition of inflammation: DTH model
Method: Delayed type hypersensitivity (DTH), a localized inflammatory reaction induced by cytokines secreted by certain TH cells when they encounter certain types of antigens, is an established experimental model for skin inflammation.
DTH reactions were induced in the abdomen skin of 8 week old female Balb/c mice, weighing 20 g each.
The mice were sensitized first by topical application of 100 μl of a 5% Oxazolone (4-Ethoxymethylene-2-phenyl-2-oxazolin-5-one; Sigma) solution in ethanol/acetone (3:1, vol/vol) to a shaved abdomen. The mice were anesthetized with I.P. injection of 0.2 ml/mouse of a stock solution prepared from Ketamine (1 ml)+Xylazine (1 ml)+Saline (8 ml). The anesthesia was done for the shaving of the abdomen and the first sensitization.
After 4 days the mice were challenged for the second time using 1% Oxazolone (4-Ethoxymethylene-2-phenyl-2-oxazolin-5-one; Sigma) solution in ethanol/acetone (3:1, vol/vol). The solution was pipetted onto the shaved abdomen of the mice.
Six days after the first sensitization, the right ear of each mouse was challenged with topical application of 20 μl (10 μl at each surface of the ear) of a 1% Oxazolone solution in olive oil/acetone (3:1, vol/vol).
Treatment was given 30 min after the elicitation by applying 40 μl (20 μl at each surface of the ear) of treatment compounds, as described before, on the challenged ear of each mouse.
After 24 hours, the extent of inflammation was measured using the mouse ear swelling test (caliper) and the percent inhibition induced by the treatment was quantified.
The experiment includes a positive control group which was administered Dexamethasone 2 mg/mouse, one untreated group as a negative control and one naïve group.
Baseline measurements of the ear were conducted before the first sensitization.

[2] = Racemization in various solvents, S-isomer measured by chiral HPLC; format: physicochemical
Method: A sample of (R)-Amino-phenyl-acetic acid octadec-9-(Z)-enyl ester HCl (Compound 2) was suspended in various solvents (2 mg/ml). The compound was 99.7% enantiomerically pure as determined by chiral HPLC. The presence of the S-isomer (compound 1) was measured after various time points. The amount of racemization in terms of percent (relative to compound 1+compound 2) is detailed in Table 2 below.
The presence of the S-isomer (Compound 1) was measured by chiral HPLC after various time points. The amount in terms of percent (relative to compound 1+compound 2) is detailed in the table below.

pKa of the compound = format: physicochemical
[3] = 5 mg/ml, 0.2 mg/mouse topical on challenged ear
[4] = 8 mg/ml, 0.32 mg/mouse topical on challenged ear
[5] = 12.5 mg/ml, 0.5 mg/mouse topical on challenged ear
[6] = 25 mg/ml, 1 mg/mouse topical on challenged ear
[7] = positive control, 50 mg/ml, 2 mg/mouse

In the case of `CCCCCCCC/C=C\CCCCCCCCOC(=O)C(N)c1ccccc1.Cl` (racemic) [Racemic, aminophenylacetic acid octadec-(Z)-9-enyl ester HCl, reference compound], the “% Inflamation (Diff/Base line * 100)” value [1, 3] is reported as 69.43%, the “% Inhibition” value [1, 3] is reported as 38.46% and the Difference mm [1, 3] is reported as 0.18 mm. For the same compound, the “% Inflamation (Diff/Base line * 100)” value [1, 4] was 73.53%, the “% Inhibition” value [1, 4] was 39.98% and the Difference mm [1, 4] was 0.17 mm. For the same compound, the “% Inflamation (Diff/Base line * 100)” value [1, 5] was 43.08%, the “% Inhibition” value [1, 5] was 60.14% and the Difference mm [1, 5] was 0.11 mm. The “% Inflamation (Diff/Base line * 100)” value [1, 6] was 13.68%, the “% Inhibition” value [1, 6] was 87.76% and the Difference mm [1, 6] was 0.04 mm. The inhibition of inflammation [1] was “provide inhibition of inflammation”.
In the case of `CCCCCCCC/C=C\CCCCCCCCOC(=O)[C@@H](N)c1ccccc1` [Compound 1, (S)-Amino-phenyl-acetic acid octadec-9-(Z)-enyl ester HCl], the “% Inflamation (Diff/Base line * 100)” value [1, 3] is reported as 87.18%, the “% Inhibition” value [1, 3] is reported as 20.75% and the Difference mm [1, 3] is reported as 0.23 mm. The “% Inflamation (Diff/Base line * 100)” value [1, 4] was 34.76%, the “% Inhibition” value [1, 4] was 68.53% and the Difference mm [1, 4] was 0.09 mm. The “% Inflamation (Diff/Base line * 100)” value [1, 5] was 25.84%, the “% Inhibition” value [1, 5] was 77.86% and the Difference mm [1, 5] was 0.06 mm. The “% Inflamation (Diff/Base line * 100)” value [1, 6] was 17.70%, the “% Inhibition” value [1, 6] was 83.68% and the Difference mm [1, 6] was 0.05 mm. For the same compound, the inhibition of inflammation [1] was “provide inhibition of inflammation”.
In the case of `CCCCCCCC/C=C\CCCCCCCCOC(=O)[C@H](N)c1ccccc1` [Compound 2, (R)-Amino-phenyl-acetic acid octadec-9-(Z)-enyl ester HCl], the “Percent racemization (relative to compound 1 + compound 2)” value ([2]; 0.1 N HCl, 2 mg/ml, 0 hours) is reported as 0.4%, the “Percent racemization (relative to compound 1 + compound 2)” value ([2]; 0.1 N HCl, 2 mg/ml, 1 hour) is reported as 0.4% and the “Percent racemization (relative to compound 1 + compound 2)” value ([2]; 0.1 N HCl, 2 mg/ml, 2 hours) is reported as 0.4%. For the same compound, the “Percent racemization (relative to compound 1 + compound 2)” value ([2]; 0.1 N HCl, 2 mg/ml, 3 hours) was 0.3%, the “Percent racemization (relative to compound 1 + compound 2)” value ([2]; 0.1 N HCl, 2 mg/ml, 4 hours) was 0.3% and the “Percent racemization (relative to compound 1 + compound 2)” value ([2]; 0.1 N HCl, 2 mg/ml, 21 hours) was 0.3%. The “Percent racemization (relative to compound 1 + compound 2)” value ([2]; 0.9% NaCl solution, 2 mg/ml, 0 hours) was 0.9%, the “Percent racemization (relative to compound 1 + compound 2)” value ([2]; 0.9% NaCl solution, 2 mg/ml, 1 hour) was 1.2% and the “Percent racemization (relative to compound 1 + compound 2)” value ([2]; 0.9% NaCl solution, 2 mg/ml, 2 hours) was 2.3%. The “Percent racemization (relative to compound 1 + compound 2)” value ([2]; 0.9% NaCl solution, 2 mg/ml, 3 hours) was 3.3%, the “Percent racemization (relative to compound 1 + compound 2)” value ([2]; 0.9% NaCl solution, 2 mg/ml, 4 hours) was 3.0% and the “Percent racemization (relative to compound 1 + compound 2)” value ([2]; 0.9% NaCl solution, 2 mg/ml, 21 hours) was 6.0%. For the same compound, the “S-isomer (Compound 1) amount in percent (relative to compound 1+compound 2)” value ([2]; 1% Acetic acid, pH 2.8, 2 mg/ml, 0 hr) was 0.7%, the “S-isomer (Compound 1) amount in percent (relative to compound 1+compound 2)” value ([2]; 1% Acetic acid, pH 2.8, 2 mg/ml, 1 hr) was 2.0% and the “S-isomer (Compound 1) amount in percent (relative to compound 1+compound 2)” value ([2]; 1% Acetic acid, pH 2.8, 2 mg/ml, 2 hr) was 3.6%. The “S-isomer (Compound 1) amount in percent (relative to compound 1+compound 2)” value ([2]; 1% Acetic acid, pH 2.8, 2 mg/ml, 3 hr) was 5.2%, the “S-isomer (Compound 1) amount in percent (relative to compound 1+compound 2)” value ([2]; 1% Acetic acid, pH 2.8, 2 mg/ml, 4 hr) was 6.6% and the “S-isomer (Compound 1) amount in percent (relative to compound 1+compound 2)” value ([2]; Acetate Buffer, pH 3.5, 2 mg/ml, 0 hr) was 0.3%. For the same compound, the “S-isomer (Compound 1) amount in percent (relative to compound 1+compound 2)” value ([2]; Acetate Buffer, pH 3.5, 2 mg/ml, 1 hr) was 3.3%, the “S-isomer (Compound 1) amount in percent (relative to compound 1+compound 2)” value ([2]; Acetate Buffer, pH 3.5, 2 mg/ml, 2 hr) was 6.2% and the “S-isomer (Compound 1) amount in percent (relative to compound 1+compound 2)” value ([2]; Acetate Buffer, pH 3.5, 2 mg/ml, 3 hr) was 9.3%. The “S-isomer (Compound 1) amount in percent (relative to compound 1+compound 2)” value ([2]; Acetate Buffer, pH 3.5, 2 mg/ml, 4 hr) was 12.1%, the “S-isomer (Compound 1) amount in percent (relative to compound 1+compound 2)” value ([2]; Acetate Buffer, pH 4.0, 2 mg/ml, 0 hr) was 0.2% and the “S-isomer (Compound 1) amount in percent (relative to compound 1+compound 2)” value ([2]; Acetate Buffer, pH 4.0, 2 mg/ml, 1 hr) was 7.7%. For the same compound, the “S-isomer (Compound 1) amount in percent (relative to compound 1+compound 2)” value ([2]; Acetate Buffer, pH 4.0, 2 mg/ml, 2 hr) was 15.2%, the “S-isomer (Compound 1) amount in percent (relative to compound 1+compound 2)” value ([2]; Acetate Buffer, pH 4.0, 2 mg/ml, 3 hr) was 22.1% and the “S-isomer (Compound 1) amount in percent (relative to compound 1+compound 2)” value ([2]; Acetate Buffer, pH 4.0, 2 mg/ml, 4 hr) was 27.2%. The “S-isomer (Compound 1) amount in percent (relative to compound 1+compound 2)” value ([2]; Acetate Buffer, pH 5.0, 2 mg/ml, 0 hr) was 0.2%, the “S-isomer (Compound 1) amount in percent (relative to compound 1+compound 2)” value ([2]; Acetate Buffer, pH 5.0, 2 mg/ml, 1 hr) was 6.3% and the “S-isomer (Compound 1) amount in percent (relative to compound 1+compound 2)” value ([2]; Acetate Buffer, pH 5.0, 2 mg/ml, 2 hr) was 14.6%. The “S-isomer (Compound 1) amount in percent (relative to compound 1+compound 2)” value ([2]; Acetate Buffer, pH 5.0, 2 mg/ml, 3 hr) was 19.0%, the “S-isomer (Compound 1) amount in percent (relative to compound 1+compound 2)” value ([2]; Acetate Buffer, pH 5.0, 2 mg/ml, 4 hr) was 25.3% and the “S-isomer (Compound 1) amount in percent (relative to compound 1+compound 2)” value ([2]; Acetate Buffer, pH 5.5, 2 mg/ml, 0 hr) was 0.2%. The “S-isomer (Compound 1) amount in percent (relative to compound 1+compound 2)” value ([2]; Acetate Buffer, pH 5.5, 2 mg/ml, 1 hr) was 4.7%, the “S-isomer (Compound 1) amount in percent (relative to compound 1+compound 2)” value ([2]; Acetate Buffer, pH 5.5, 2 mg/ml, 2 hr) was 8.2% and the “S-isomer (Compound 1) amount in percent (relative to compound 1+compound 2)” value ([2]; Acetate Buffer, pH 5.5, 2 mg/ml, 3 hr) was 12.4%. For the same compound, the “S-isomer (Compound 1) amount in percent (relative to compound 1+compound 2)” value ([2]; Acetate Buffer, pH 5.5, 2 mg/ml, 4 hr) was 16.4%, the “Percent racemization (relative to compound 1 + compound 2)” value ([2]; PBS, pH 7.4, 2 mg/ml, 0 hours) was 0.4% and the “Percent racemization (relative to compound 1 + compound 2)” value ([2]; PBS, pH 7.4, 2 mg/ml, 1 hour) was 7.2%. For the same compound, the “Percent racemization (relative to compound 1 + compound 2)” value ([2]; PBS, pH 7.4, 2 mg/ml, 2 hours) was 12.3%, the “Percent racemization (relative to compound 1 + compound 2)” value ([2]; PBS, pH 7.4, 2 mg/ml, 3 hours) was 15.0% and the “Percent racemization (relative to compound 1 + compound 2)” value ([2]; PBS, pH 7.4, 2 mg/ml, 4 hours) was 17.9%. The “Percent racemization (relative to compound 1 + compound 2)” value ([2]; PBS, pH 7.4, 2 mg/ml, 21 hours) was 47.0%, the “Percent racemization (relative to compound 1 + compound 2)” value ([2]; Purified water, 2 mg/ml, 0 hours) was 0.4% and the “Percent racemization (relative to compound 1 + compound 2)” value ([2]; Purified water, 2 mg/ml, 1 hour) was 3.8%. For the same compound, the “Percent racemization (relative to compound 1 + compound 2)” value ([2]; Purified water, 2 mg/ml, 2 hours) was 7.2%, the “Percent racemization (relative to compound 1 + compound 2)” value ([2]; Purified water, 2 mg/ml, 3 hours) was 10.3% and the “Percent racemization (relative to compound 1 + compound 2)” value ([2]; Purified water, 2 mg/ml, 4 hours) was 13.9%. The “Percent racemization (relative to compound 1 + compound 2)” value ([2]; Purified water, 2 mg/ml, 21 hours) was 38.2%, the “racemization in various aqueous solvents” value ([2]; various aqueous solvents) was “undergoes racemization” and the “% Inflamation (Diff/Base line * 100)” value [1, 3] was 71.13%. For the same compound, the “% Inhibition” value [1, 3] was 39.39%, the Difference mm [1, 3] was 0.17 mm and the “% Inflamation (Diff/Base line * 100)” value [1, 4] was 41.68%. The “% Inhibition” value [1, 4] was 62.12%, the Difference mm [1, 4] was 0.11 mm and the “% Inflamation (Diff/Base line * 100)” value [1, 5] was 50.31%. For the same compound, the “% Inhibition” value [1, 5] was 55.71%, the Difference mm [1, 5] was 0.13 mm and the “% Inflamation (Diff/Base line * 100)” value [1, 6] was 35.01%. For the same compound, the “% Inhibition” value [1, 6] was 68.53%, the Difference mm [1, 6] was 0.09 mm and the inhibition of inflammation [1] was “provide inhibition of inflammation”. For the same compound, the pKa (pKa of the compound) was 4.2.
In the case of `C[C@@H]1C[C@H]2[C@@H]3CCC4=CC(=O)C=C[C@]4(C)[C@@]3(F)[C@@H](O)C[C@]2(C)[C@@]1(O)C(=O)CO` [dexamethasone, Dexamethasone, reference compound], the “% Inflamation (Diff/Base line * 100)” value [1, 7] is reported as 22.62%, the “% Inhibition” value [1, 7] is reported as 80.42% and the Difference mm [1, 7] is reported as 0.06 mm.
